pIC50: −log10 of the molar value.
system: B cell receptor-mediated activation of B cells in human blood (CD69 expression); experiment: Inhibition of B cell activation in whole blood measured by CD69 expression; assay type: cell-based; conditions: anti-IgM stimulation, 20 hours, CD69-positive cells that are also CD20-positive, read-out: HWB IC50
Procedure: Inhibition of B Cell Activation in Whole Blood Measured by CD69 Expression
A procedure to test the ability of Btk inhibitors to suppress B cell receptor-mediated activation of B cells in human blood is as follows:
Human whole blood (HWB) is obtained from healthy volunteers, with the following restrictions: 24 hr drug-free, non-smokers. Blood is collected by venipuncture into Vacutainer tubes anticoagulated with sodium heparin. Test compounds are diluted to ten times the desired starting drug concentration in PBS […], followed by three-fold serial dilutions in 10% DMSO in PBS to produce a nine point dose-response curve. […] HWB (100 μl) is added to each well, and after mixing the plates are incubated at 37 C, 5% CO2, 100% humidity for 30 minutes.
Included are induced control, unstained and single stains for compensation adjustments and initial voltage settings. […] Supernatants are removed via suction and the remaining pellets are lysed again with another 1 ml of 1× Pharmingen Lyse Buffer, and plates are spun down as before. Supernatants are aspirated and remaining pellets are washed in FACs buffer (PBS+1% FBS). […] Samples are transferred to a 96 well plate suitable to be run on the HTS 96 well system on the BD LSR II flow cytometer.
Using appropriate excitation and emission wavelengths for the fluorophores used, data are acquired and percent positive cell values are obtained using Cell Quest Software. Results are initially analyzed by FACS analysis software (Flow Jo).

pIC50 | Structure (SMILES)
7.96 | CN1CCC(c2ccc(Nc3cc(-c4ccnc(-n5ncc6cc(C(C)(C)C)cc(F)c6c5=O)c4CO)nn(C)c3=O)nc2)CC1 [Compound I-1, 6-tert-Butyl-8-fluoro-2-{3-hydroxymethyl-4-[1-methyl-5-(1′-methyl-1′,2′,3′,4′,5′,6′-hexahydro-[3,4′]bipyridinyl-6-ylamino)-6-oxo-1,6-dihydro-pyridazin-3-yl]-pyridin-2-yl}-2H-phthalazin-1-one]
8.30 | CN1CCC[C@H]1c1ccc(Nc2cc(-c3ccnc(-n4ncc5cc(C(C)(C)C)cc(F)c5c4=O)c3CO)nn(C)c2=O)nc1 [Compound I-2, 6-tert-Butyl-8-fluoro-2-(3-hydroxymethyl-4-{1-methyl-5-[5-((S)-1-methyl-pyrrolidin-2-yl)-pyridin-2-ylamino]-6-oxo-1,6-dihydro-pyridazin-3-yl}-pyridin-2-yl)-2H-phthalazin-1-one]
7.85 | Cn1nc(-c2ccnc(-n3ncc4cc(C(C)(C)C)cc(F)c4c3=O)c2CO)cc(Nc2ccc(C(=O)N3CCOCC3)cn2)c1=O [Compound I-3, 6-tert-Butyl-8-fluoro-2-(3-hydroxymethyl-4-{1-methyl-5-[5-(morpholine-4-carbonyl)-pyridin-2-ylamino]-6-oxo-1,6-dihydro-pyridazin-3-yl}-pyridin-2-yl)-2H-phthalazin-1-one]
7.02 | Cn1nc(-c2ccnc(-n3ncc4cc(C(C)(C)C)cc(F)c4c3=O)c2CO)cc(Nc2ccc(S(C)(=O)=O)cn2)c1=O [Compound I-4, 6-tert-Butyl-8-fluoro-2-{3-hydroxymethyl-4-[5-(5-methanesulfonyl-pyridin-2-ylamino)-1-methyl-6-oxo-1,6-dihydro-pyridazin-3-yl]-pyridin-2-yl}-2H-phthalazin-1-one]
7.52 | CN(C)C(=O)c1ccc(Nc2cc(-c3ccnc(-n4ncc5cc(C(C)(C)C)cc(F)c5c4=O)c3CO)nn(C)c2=O)nc1 [Compound I-5, 6-{6-[2-(6-tert-Butyl-8-fluoro-1-oxo-1H-phthalazin-2-yl)-3-hydroxymethyl-pyridin-4-yl]-2-methyl-3-oxo-2,3-dihydro-pyridazin-4-ylamino}-N,N-dimethyl-nicotinamide]
7.11 | CN(C)C(=O)c1ccc(Nc2cc(-c3ccnc(-n4ccc5cc(C6CC6)cc(F)c5c4=O)c3CO)nn(C)c2=O)nc1 [Compound I-6, 6-{6-[2-(6-Cyclopropyl-8-fluoro-1-oxo-1H-isoquinolin-2-yl)-3-hydroxymethyl-pyridin-4-yl]-2-methyl-3-oxo-2,3-dihydro-pyridazin-4-ylamino}-N,N-dimethyl-nicotinamide]
7.00 | Cn1nc(-c2ccnc(-n3ncc4cc(C(C)(C)C)ccc4c3=O)c2CO)cc(Nc2ccc(C(=O)N3CCOCC3)cn2)c1=O [Compound I-7, 6-tert-Butyl-2-(3-hydroxymethyl-4-{1-methyl-5-[5-(morpholine-4-carbonyl)-pyridin-2-ylamino]-6-oxo-1,6-dihydro-pyridazin-3-yl}-pyridin-2-yl)-2H-phthalazin-1-one]
7.57 | Cn1cc(-c2ccnc(-n3ncc4cc(C(C)(C)C)cc(F)c4c3=O)c2CO)cc(Nc2ccc(C(=O)N3CCOCC3)cn2)c1=O [Compound I-8, 2′-(6-tert-Butyl-8-fluoro-1-oxo-1H-phthalazin-2-yl)-3′-hydroxymethyl-1-methyl-5-[5-(morpholine-4-carbonyl)-pyridin-2-ylamino]-1H-[3,4′]bipyridinyl-6-one]
8.05 | CN(C)C(=O)c1ccc(Nc2cc(-c3ccnc(-n4ncc5cc(C(C)(C)C)cc(F)c5c4=O)c3CO)cn(C)c2=O)nc1 [Compound I-10, 6-[2′-(6-tert-Butyl-8-fluoro-1-oxo-1H-phthalazin-2-yl)-3′-hydroxymethyl-1-methyl-6-oxo-1,6-dihydro-[3,4′]bipyridinyl-5-ylamino]-N,N-dimethyl-nicotinamide]
7.82 | Cn1cc(-c2ccnc(-n3ccc4cc(C5CC5)cc(F)c4c3=O)c2CO)cc(Nc2ccc(C(=O)N3CCOCC3)cn2)c1=O [Compound I-11, 2′-(6-Cyclopropyl-8-fluoro-1-oxo-1H-isoquinolin-2-yl)-3′-hydroxymethyl-1-methyl-5-[5-(morpholine-4-carbonyl)-pyridin-2-ylamino]-1H-[3,4′]bipyridinyl-6-one]
7.55 | CN1CCC[C@H]1c1ccc(Nc2cc(-c3ccnc(-n4ncc5cc(C(C)(C)C)ccc5c4=O)c3CO)nn(C)c2=O)nc1 [Compound I-12, 6-tert-Butyl-2-(3-hydroxymethyl-4-{1-methyl-5-[5-((S)-1-methyl-pyrrolidin-2-yl)-pyridin-2-ylamino]-6-oxo-1,6-dihydro-pyridazin-3-yl}-pyridin-2-yl)-2H-phthalazin-1-one]
7.33 | CN1CCC(c2ccc(Nc3cc(-c4ccnc(-n5ncc6cc(C(C)(C)C)ccc6c5=O)c4CO)nn(C)c3=O)nc2)CC1 [Compound I-13, 6-tert-Butyl-2-{3-hydroxymethyl-4-[1-methyl-5-(1′-methyl-1′,2′,3′,4′,5′,6′-hexahydro-[3,4′]bipyridinyl-6-ylamino)-6-oxo-1,6-dihydro-pyridazin-3-yl]-pyridin-2-yl}-2H-phthalazin-1-one]
8.22 | CCN1CCC(c2ccc(Nc3cc(-c4ccnc(-n5ncc6cc(C(C)(C)C)cc(F)c6c5=O)c4CO)nn(C)c3=O)nc2)CC1 [Compound I-14, 6-tert-Butyl-2-{4-[5-(1′-ethyl-1′,2′,3′,4′,5′,6′-hexahydro-[3,4′]bipyridinyl-6-ylamino)-1-methyl-6-oxo-1,6-dihydro-pyridazin-3-yl]-3-hydroxymethyl-pyridin-2-yl}-8-fluoro-2H-phthalazin-1-one]
8.52 | Cn1nc(-c2ccnc(-n3ncc4cc(C(C)(C)C)cc(F)c4c3=O)c2CO)cc(Nc2ccc(OC(C)(C)CN3CCC3)cn2)c1=O [Compound I-15, 2-(4-{5-[5-(2-Azetidin-1-yl-1,1-dimethyl-ethoxy)-pyridin-2-ylamino]-1-methyl-6-oxo-1,6-dihydro-pyridazin-3-yl}-3-hydroxymethyl-pyridin-2-yl)-6-tert-butyl-8-fluoro-2H-phthalazin-1-one]
7.55 | Cn1nc(-c2ccnc(-n3ncc4cc(C(C)(C)C)ccc4c3=O)c2CO)cc(Nc2ccc(OC(C)(C)CN3CCC3)cn2)c1=O [Compound I-16, 2-(4-{5-[5-(2-Azetidin-1-yl-1,1-dimethyl-ethoxy)-pyridin-2-ylamino]-1-methyl-6-oxo-1,6-dihydro-pyridazin-3-yl}-3-hydroxymethyl-pyridin-2-yl)-6-tert-butyl-2H-phthalazin-1-one]
7.52 | Cn1nc(Nc2cc(-c3ccnc(-n4ncc5cc(C(C)(C)C)cc(F)c5c4=O)c3CO)nn(C)c2=O)cc1CN1CCC1 [Compound I-17, 2-{4-[5-(5-Azetidin-1-ylmethyl-1-methyl-1H-pyrazol-3-ylamino)-1-methyl-6-oxo-1,6-dihydro-pyridazin-3-yl]-3-hydroxymethyl-pyridin-2-yl}-6-tert-butyl-8-fluoro-2H-phthalazin-1-one]
7.54 | CN1CCn2nc(Nc3cc(-c4ccnc(-n5ncc6cc(C(C)(C)C)cc(F)c6c5=O)c4CO)nn(C)c3=O)cc2C1 [Compound I-18, 6-tert-Butyl-8-fluoro-2-{3-hydroxymethyl-4-[1-methyl-5-(5-methyl-4,5,6,7-tetrahydro-pyrazolo[1,5-a]pyrazin-2-ylamino)-6-oxo-1,6-dihydro-pyridazin-3-yl]-pyridin-2-yl}-2H-phthalazin-1-one]
